According to publication PMC12076188 (Cancer Research Communications, 2025):
Entries after “also recorded” stand apart in the source; their conditions may differ.

What was measured:
GDP-bound NRAS WT = molecular target: T1, GDP-bound NRAS WT (Homo sapiens, UniProt P01111); experiment: SOS1-mediated guanine nucleotide exchange assay (TR-FRET); type: biochemical
T1 construct: His-tagged NRAS WT (aa 1–172); made in house; host or cells: Escherichia coli

[1] = test system: p-ERK1/2 (Thr202/Tyr204) in NCI-H1373 cells (KRAS p.G12C); experiment: cells; type: cell-based; details: Homo sapiens, NCI-H1373, 2 h, read-out: p-ERK IC50 (nM)
Experimental: For phospho-ERK (p-ERK) assays, cells were seeded in 96-well plates with appropriate density (refer to Supplementary Table S3) and incubated overnight, followed by treatment with a series of concentrations of compounds in the assay medium (containing 0.1% FBS) for 2 hours. […] Then, p-AKT1/2/3 (Ser473) was detected using the p-AKT1/2/3 (Ser473) cellular kit (Cisbio/Revvity) according to the manufacturer’s instructions. […] The IC50 values were calculated using GraphPad Prism (RRID: SCR_002798) by fitting a four-parameter dose–response curve.

[2] = test system: p-ERK1/2 (Thr202/Tyr204) in Capan-2 cells (KRAS p.G12V); experiment: cells; details: Homo sapiens, Capan-2, 2 h, read-out: p-ERK IC50 (nM)
Experimental: (§1) For phospho-ERK (p-ERK) assays, cells were seeded in 96-well plates with appropriate density (refer to Supplementary Table S3) and incubated overnight, followed by treatment with a series of concentrations of compounds in the assay medium (containing 0.1% FBS) for 2 hours. Then p-ERK1/2 (Thr202/Tyr204) was detected using the advanced p-ERK1/2 (Thr202/Tyr204) cellular kit (Cisbio/Revvity) according to the manufacturer’s instructions. For phospho-AKT (p-AKT) assays, cells with appropriate density (refer to Supplementary Table S3) were treated with a series of concentrations of compound in culture medium for 24 hours in 96-well plates. Then, p-AKT1/2/3 (Ser473) was detected using the p-AKT1/2/3 (Ser473) cellular kit (Cisbio/Revvity) according to the manufacturer’s instructions. HTRF signals were recorded by the Tecan Spark multimode microplate reader (RRID: SCR_021897). The IC50 values were calculated using GraphPad Prism (RRID: SCR_002798) by fitting a four-parameter dose–response curve.
(§2) WT: wild type; AMP: amplification; CTG: CellTiter-Glo.

[3] = test system: p-ERK1/2 (Thr202/Tyr204) in MKN-1 cells (KRAS WT AMP); experiment: cells; details: Homo sapiens, MKN-1, 2 h, read-out: p-ERK IC50 (nM)
Experimental: as §1, §2

[4] = test system: p-ERK1/2 (Thr202/Tyr204) in NCI-H1792 cells (KRAS p.G12C); experiment: cells; details: Homo sapiens, NCI-H1792, 2 h, read-out: p-ERK IC50 (nM)
Experimental: as §1, §2

[5] = test system: p-ERK1/2 (Thr202/Tyr204) in SW837 cells (KRAS p.G12C); experiment: cells; details: Homo sapiens, SW837, 2 h, read-out: p-ERK IC50 (nM)
Experimental: as §1, §2

[6] = test system: Ba/F3 cells carrying HRAS p.G12C; experiment: Ba/F3-engineered cell line viability; type: cell-based; details: Mus musculus, BaF3; Ba/F3 cell line carrying HRAS p.G12C; read-out: cell viability inhibitory IC50
Experimental: (§3) The inhibitory activity of compounds on Ba/F3-engineered cell line viability was tested by Kyinno Biotechnology. Other cell viability assays on human cancer cell lines were conducted in-house. Cells were seeded in 96-well plates and incubated overnight, followed by treatment with various concentrations of compounds or solvent control for 6 days. Cell viability was detected using either the CellTiter-Glo (CTG) luminescent cell viability assay or the CTG 3D cell viability assay (Promega) for 2D and 3D CTG assays, respectively. […] The cell density is indicated in Supplementary Table S3.

[7] = test system: Ba/F3 cells carrying NRAS p.G12C; experiment: Ba/F3-engineered cell line viability; type: cell-based; details: Mus musculus, BaF3; Ba/F3 cell line carrying NRAS p.G12C; read-out: cell viability inhibitory IC50
Experimental: as §3

Adrenergic α2A = Adrenergic α2A (Homo sapiens, UniProt P08913); experiment: 41-target safety off-target activity panel
Chain of Adrenergic α2A (P08913 whole entry): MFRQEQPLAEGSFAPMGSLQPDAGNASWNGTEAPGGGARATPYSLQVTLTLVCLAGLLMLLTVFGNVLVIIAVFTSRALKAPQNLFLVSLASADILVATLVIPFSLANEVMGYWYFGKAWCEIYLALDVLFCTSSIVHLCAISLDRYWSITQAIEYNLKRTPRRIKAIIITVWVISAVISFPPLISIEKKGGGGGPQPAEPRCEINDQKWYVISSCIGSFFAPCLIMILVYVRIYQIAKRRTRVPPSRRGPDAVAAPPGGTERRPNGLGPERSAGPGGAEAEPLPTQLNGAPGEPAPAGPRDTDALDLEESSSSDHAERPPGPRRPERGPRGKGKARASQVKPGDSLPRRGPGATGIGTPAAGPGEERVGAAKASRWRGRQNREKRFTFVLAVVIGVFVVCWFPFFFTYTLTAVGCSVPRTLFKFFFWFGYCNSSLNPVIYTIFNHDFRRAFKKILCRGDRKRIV

Cannabinoid CB2 = Cannabinoid CB2 (Homo sapiens, UniProt P34972); experiment: 41-target safety off-target activity panel
Chain of Cannabinoid CB2 (P34972 whole entry): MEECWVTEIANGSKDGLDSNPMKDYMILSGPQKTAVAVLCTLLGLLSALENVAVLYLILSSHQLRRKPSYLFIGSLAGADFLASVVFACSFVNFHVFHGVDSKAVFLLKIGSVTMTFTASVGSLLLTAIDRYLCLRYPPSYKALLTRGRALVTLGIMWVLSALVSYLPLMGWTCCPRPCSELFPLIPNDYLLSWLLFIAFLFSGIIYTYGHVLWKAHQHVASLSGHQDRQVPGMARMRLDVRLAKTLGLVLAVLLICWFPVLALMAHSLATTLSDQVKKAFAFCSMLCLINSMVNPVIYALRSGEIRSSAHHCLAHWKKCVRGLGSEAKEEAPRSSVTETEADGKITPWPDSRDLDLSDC

Endothelin ETA = Endothelin ETA (Homo sapiens, UniProt P25101); experiment: 41-target safety off-target activity panel
Chain of Endothelin ETA (P25101 21-427): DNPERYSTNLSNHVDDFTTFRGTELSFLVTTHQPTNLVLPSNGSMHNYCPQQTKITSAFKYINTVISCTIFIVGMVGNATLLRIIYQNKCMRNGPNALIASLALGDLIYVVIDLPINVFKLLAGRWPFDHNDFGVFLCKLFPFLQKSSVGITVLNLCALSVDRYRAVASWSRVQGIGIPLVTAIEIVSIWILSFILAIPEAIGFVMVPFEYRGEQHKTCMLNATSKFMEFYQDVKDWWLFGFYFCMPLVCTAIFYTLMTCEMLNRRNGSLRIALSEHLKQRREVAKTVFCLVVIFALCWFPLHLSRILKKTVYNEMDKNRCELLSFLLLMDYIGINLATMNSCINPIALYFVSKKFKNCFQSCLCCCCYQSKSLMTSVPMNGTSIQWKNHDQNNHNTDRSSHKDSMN

Histamine H1 = Histamine H1 (Homo sapiens, UniProt P35367); experiment: 41-target safety off-target activity panel
Chain of Histamine H1 (P35367 whole entry): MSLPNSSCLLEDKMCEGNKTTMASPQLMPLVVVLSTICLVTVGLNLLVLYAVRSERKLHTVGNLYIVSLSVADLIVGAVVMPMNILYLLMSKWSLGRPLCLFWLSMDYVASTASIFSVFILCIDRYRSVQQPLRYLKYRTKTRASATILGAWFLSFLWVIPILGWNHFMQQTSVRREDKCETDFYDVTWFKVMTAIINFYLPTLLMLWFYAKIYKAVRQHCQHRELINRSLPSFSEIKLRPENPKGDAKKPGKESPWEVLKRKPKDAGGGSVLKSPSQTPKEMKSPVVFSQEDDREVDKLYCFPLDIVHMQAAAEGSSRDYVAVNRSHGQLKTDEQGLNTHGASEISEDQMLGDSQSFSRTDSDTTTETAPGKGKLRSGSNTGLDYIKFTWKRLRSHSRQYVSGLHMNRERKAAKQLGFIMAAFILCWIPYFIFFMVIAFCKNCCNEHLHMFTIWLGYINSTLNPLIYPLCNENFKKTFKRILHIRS

Acetylcholine M3 = Acetylcholine M3 (Homo sapiens, UniProt P20309); experiment: 41-target safety off-target activity panel
Chain of Acetylcholine M3 (P20309 whole entry): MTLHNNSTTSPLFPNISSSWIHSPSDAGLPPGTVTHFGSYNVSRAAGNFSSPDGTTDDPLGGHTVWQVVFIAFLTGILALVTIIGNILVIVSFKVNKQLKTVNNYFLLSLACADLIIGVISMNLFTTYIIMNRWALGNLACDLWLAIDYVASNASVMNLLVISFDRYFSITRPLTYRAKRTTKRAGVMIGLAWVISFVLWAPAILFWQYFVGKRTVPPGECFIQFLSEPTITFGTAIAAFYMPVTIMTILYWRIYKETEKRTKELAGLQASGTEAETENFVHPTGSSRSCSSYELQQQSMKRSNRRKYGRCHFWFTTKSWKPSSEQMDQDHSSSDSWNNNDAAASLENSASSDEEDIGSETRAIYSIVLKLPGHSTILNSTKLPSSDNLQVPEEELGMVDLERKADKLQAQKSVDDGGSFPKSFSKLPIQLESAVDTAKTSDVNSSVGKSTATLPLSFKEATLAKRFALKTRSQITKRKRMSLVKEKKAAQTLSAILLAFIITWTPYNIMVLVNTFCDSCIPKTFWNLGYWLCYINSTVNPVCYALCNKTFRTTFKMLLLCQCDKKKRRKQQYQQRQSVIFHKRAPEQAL

Opioid δ = Opioid δ (Homo sapiens, UniProt P41143); experiment: 41-target safety off-target activity panel
Chain of Opioid δ (P41143 whole entry): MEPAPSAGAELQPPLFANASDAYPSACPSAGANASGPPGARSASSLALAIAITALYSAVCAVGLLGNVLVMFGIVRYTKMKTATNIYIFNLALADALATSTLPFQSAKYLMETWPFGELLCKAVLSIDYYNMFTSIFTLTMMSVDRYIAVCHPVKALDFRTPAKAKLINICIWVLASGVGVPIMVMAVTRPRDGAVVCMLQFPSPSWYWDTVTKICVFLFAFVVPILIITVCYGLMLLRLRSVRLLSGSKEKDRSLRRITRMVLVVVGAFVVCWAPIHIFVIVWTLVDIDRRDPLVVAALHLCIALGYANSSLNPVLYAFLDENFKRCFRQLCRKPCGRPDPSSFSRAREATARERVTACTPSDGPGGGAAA

[8] = molecular target: Serotonin Transporter SET (Homo sapiens, UniProt P31645); experiment: 41-target safety off-target activity panel
Chain of Serotonin Transporter SET (P31645 whole entry): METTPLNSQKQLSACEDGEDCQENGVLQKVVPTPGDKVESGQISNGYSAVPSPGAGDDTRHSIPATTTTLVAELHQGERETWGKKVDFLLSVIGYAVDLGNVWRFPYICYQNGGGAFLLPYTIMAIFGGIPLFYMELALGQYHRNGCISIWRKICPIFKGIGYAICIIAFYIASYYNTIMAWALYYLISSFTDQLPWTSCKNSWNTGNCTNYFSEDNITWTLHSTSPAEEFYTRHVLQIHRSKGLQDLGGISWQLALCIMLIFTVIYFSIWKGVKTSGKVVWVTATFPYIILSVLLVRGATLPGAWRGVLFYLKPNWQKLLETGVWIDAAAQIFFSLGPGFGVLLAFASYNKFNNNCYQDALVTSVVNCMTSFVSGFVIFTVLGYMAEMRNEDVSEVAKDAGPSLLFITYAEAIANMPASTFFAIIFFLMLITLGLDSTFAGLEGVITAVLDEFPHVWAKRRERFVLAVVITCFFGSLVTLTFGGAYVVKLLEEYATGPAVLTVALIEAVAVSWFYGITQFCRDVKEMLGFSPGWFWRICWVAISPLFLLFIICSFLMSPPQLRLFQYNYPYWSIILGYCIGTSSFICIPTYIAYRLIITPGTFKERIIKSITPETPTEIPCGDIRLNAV

Cyclooxygenase COX2 = Cyclooxygenase COX2 (Homo sapiens, UniProt P35354); experiment: 41-target safety off-target activity panel
Chain of Cyclooxygenase COX2 (P35354 18-604): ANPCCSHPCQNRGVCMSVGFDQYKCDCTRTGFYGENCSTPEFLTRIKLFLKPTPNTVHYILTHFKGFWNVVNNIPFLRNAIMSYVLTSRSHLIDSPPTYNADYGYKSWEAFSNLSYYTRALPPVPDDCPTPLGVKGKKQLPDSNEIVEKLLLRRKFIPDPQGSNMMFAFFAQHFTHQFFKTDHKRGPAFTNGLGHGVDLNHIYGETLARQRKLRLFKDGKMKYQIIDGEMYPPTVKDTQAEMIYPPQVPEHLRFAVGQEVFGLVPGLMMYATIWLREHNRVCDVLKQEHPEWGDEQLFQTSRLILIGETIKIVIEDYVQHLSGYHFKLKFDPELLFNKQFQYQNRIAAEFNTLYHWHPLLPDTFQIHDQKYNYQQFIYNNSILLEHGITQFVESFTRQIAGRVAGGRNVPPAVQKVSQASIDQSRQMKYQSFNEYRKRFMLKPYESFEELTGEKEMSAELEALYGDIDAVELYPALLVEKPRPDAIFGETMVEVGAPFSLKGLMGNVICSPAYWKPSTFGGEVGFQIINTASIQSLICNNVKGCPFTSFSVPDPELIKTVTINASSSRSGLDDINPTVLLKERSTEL

Phosphodiesterase PDE3A = Phosphodiesterase PDE3A (Homo sapiens, UniProt Q14432); experiment: 41-target safety off-target activity panel
Phosphodiesterase PDE4D2 = Phosphodiesterase PDE4D2 (Homo sapiens, UniProt Q08499); experiment: 41-target safety off-target activity panel
Monoamine oxidase MAO-A = Monoamine oxidase MAO-A (Homo sapiens, UniProt P21397); experiment: 41-target safety off-target activity panel
Chain of Monoamine oxidase MAO-A (P21397 whole entry): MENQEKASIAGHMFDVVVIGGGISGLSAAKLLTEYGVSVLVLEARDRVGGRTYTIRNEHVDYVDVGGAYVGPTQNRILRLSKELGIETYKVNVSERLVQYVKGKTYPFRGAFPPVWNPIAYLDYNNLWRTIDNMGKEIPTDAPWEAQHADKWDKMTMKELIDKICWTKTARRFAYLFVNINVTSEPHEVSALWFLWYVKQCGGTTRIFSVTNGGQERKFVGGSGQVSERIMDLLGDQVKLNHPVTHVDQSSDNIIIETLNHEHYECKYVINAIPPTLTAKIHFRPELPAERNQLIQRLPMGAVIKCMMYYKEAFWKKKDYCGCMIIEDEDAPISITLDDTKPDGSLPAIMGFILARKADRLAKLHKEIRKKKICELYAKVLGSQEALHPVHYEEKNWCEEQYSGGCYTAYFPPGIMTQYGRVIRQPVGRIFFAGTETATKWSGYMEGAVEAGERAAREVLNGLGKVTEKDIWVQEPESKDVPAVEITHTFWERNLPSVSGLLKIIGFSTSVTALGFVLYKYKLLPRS

Central Nervous System = experiment: In vivo safety pharmacology, GLP; set-up: species or system Sprague Dawley Rat; details: conscious rats, single oral dose 100, 300 and 1000 mg/kg
Description: (§4) Supplementary Table S11. In vivo safety pharmacology of glecirasib.
(§5) Organ Species/Strain Gender/No. per Group Noteworthy Findings GLP Compliance
(§6) System Beagle Dog 3/gender/group conscious and unrestrained Beagle dogs following a single oral dose of Yes

Respiratory system = experiment: In vivo safety pharmacology, GLP; set-up: species or system Sprague Dawley Rat; details: conscious rats, single oral dose 100, 300 and 1000 mg/kg
Description: as §4, §5, §6

bone marrow = experiment: Rat bone marrow micronucleus assay; type: in vivo, Sprague Dawley Rat; details: 200, 600 and 2000 mg/kg oral gavage once daily for 3 days; GLP
Experimental: No damage on chromosomal integrity or abnormal chromosome
Rat bone marrow Sprague Dawley Rat 5/gender/group segregation in the bone marrow was noted after SD rats were administered Yes
3 consecutive days. The result of this micronucleus assay was negative. […]

[9] = test system: all other kinases of the 330-kinase panel; experiment: 330-kinase panel; details: glecirasib 10 μmol/L, Km concentration of ATP

T1 sequence (P01111 1-172): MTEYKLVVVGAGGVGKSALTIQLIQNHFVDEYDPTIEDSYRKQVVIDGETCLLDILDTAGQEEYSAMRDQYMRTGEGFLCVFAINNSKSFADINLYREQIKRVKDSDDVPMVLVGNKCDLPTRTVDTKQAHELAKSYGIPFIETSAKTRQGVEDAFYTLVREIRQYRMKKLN

C=CC(=O)N1CCN(c2c(C#N)c(=O)n(-c3c(C)ccnc3C(C)C)c3nc(-c4c(N)c(F)c(F)c(F)c4F)c(Cl)cc23)CC1 [Glecirasib]
IC50 (GDP-bound NRAS WT): > 10000 nM | IC50 [1]: 6.61 nM | IC50 [2]: 5010 nM | IC50 [3]: 8380 nM | IC50 [4]: 7.16 nM | IC50 [5]: 13.6 nM | IC50 [6]: 5.32 nM | IC50 [7]: 2.02 nM | inhibition at 10 µM (Adrenergic α2A): 27.9% | Mean % activation (Adrenergic α2A; Glecirasib 10 μM): 22.71% | inhibition at 10 µM (Cannabinoid CB2): -3.75% | Mean % activation (Cannabinoid CB2; Glecirasib 10 μM): -2.50% | inhibition at 10 µM (Endothelin ETA): -14.8% | Mean % activation (Endothelin ETA; Glecirasib 10 μM): 1.59% | inhibition at 10 µM (Histamine H1): 16.2% | Mean % activation (Histamine H1; Glecirasib 10 μM): 1.79% | inhibition at 10 µM (Acetylcholine M3): 18.3% | Mean % activation (Acetylcholine M3; Glecirasib 10 μM): 45.97% | inhibition at 10 µM (Opioid δ): 33% | Mean % activation (Opioid δ; Glecirasib 10 μM): 8.42% | inhibition at 10 µM [8]: 4.04% | inhibition at 10 µM (Cyclooxygenase COX2): 14.7% | inhibition at 10 µM (Phosphodiesterase PDE3A): 12.5% | inhibition at 10 µM (Phosphodiesterase PDE4D2): 10.3% | inhibition at 10 µM (Monoamine oxidase MAO-A): 14.8% | Noteworthy Findings, central nervous system (Central Nervous System): No effects on neurobehavioral performances; also recorded: no adverse effect | Noteworthy Findings, respiratory (Respiratory system): No remarkable effect on respiratory functions; also recorded: no adverse effect | micronucleus assay result (bone marrow): negative | inhibition rate [9]: less than 50%
